Laboratory results published in patent US20080280765A1, “Method of Promoting Enlargement Growth of Agricultural and Horticultural Crops” (priority 2006, published 2008).
Structures can show the parent of a compound that is named as a salt.

Tested on: grape (species: "Italia")
Assay: Fruit enlargement test, grape, dipping treatment of bunches
Format: in vivo
Settings: for Mean bunch weight: 7 bunches; for One berry weight: bunch weight/total berry number
Protocol: Using grape (species: “Italia”) as a subject, a fruit enlargement test was done following the experimental summary described below. The test was carried out with 7 replication. Fifteen days after the full bloom, grape bunches were dipped in a chemical solution diluted to a predetermined concentration. The treated grape bunches were dried in air and grown as they were, until the bunches were harvested 43 days after the treatment to examine the bunch weight and the total number of grape berries. Five berries were randomly selected from each grape bunch of 5 replication among the test lots, for measuring the sugar level with a hand-held refracto-sugar meter manufactured by ATAGO CO., LTD (Type number: Nl). Additionally, a drug substance of gibberellin in powder (98% purity) was used as the gibberellin, while as the prohexadione calcium salt, a 27.5% formulation (the trade name: Viviful) was used, and as the trinexapac ethyl, a 25% formulation thereof (the trade name: Moddus) was used.
Material: Grape bunch “Italia” Fully bloomed on Sep. 21, 2006; starting the treatments on Oct. 6, 2006; harvested on Dec. 18, 2006: 7 bunches per one treatment lot.
C: Cont (control lot) G: dipping treatment in gibberellin (24.5 ppm) PCA: dipping treatment in prohexadione calcium salt (20 ppm, 100 ppm) GPCA: dipping treatment in gibberellin and prohexadione calcium salt (24.5 and 20 ppm, respectively or 24.5 ppm and 100 ppm, respectively) TR: dipping treatment in trinexapac ethyl (20 ppm, 100 ppm) G+TR: dipping treatment in gibberellin and trinexapac ethyl (24.5 ppm and 20 ppm, respectively or 24.5 ppm and 100 ppm, respectively).
Herein, statistical analysis was done by the Tukey's HSD test (p=0.05). Significant difference is observed between different alphabets.

Row | Structure (SMILES) | Mean bunch weight (20 ppm) | One berry weight (20 ppm) | Mean bunch weight (100 ppm) | One berry weight (100 ppm)
1 | CCC(=O)C1=C(O)CC(C(=O)O)CC1=O (centres unmarked) [PCA, prohexadione calcium salt] | 452.9 g | 7.3 g | 390.0 g | 6.4 g
2 | CCOC(=O)C1CC(=O)C(=C(O)C2CC2)C(=O)C1 (centres unmarked) [TR, trinexapac ethyl] | 487.1 g | 7.9 g | 474.3 g | 6.7 g
